Results as given in US20150181873A1, “HERBICIDE-RESISTANT SUNFLOWER PLANTS, POLYNUCLEOTIDES ENCODING HERBICIDE=RESISTANT ACETO HYDROXY ACID SYNTHASE LARGE SUBUNIT PROTEINS, AND METHODS OF USE” (NIDERA S.A., priority 2013, published 2015).

Tests used:
Type in all cases: in vivo, Helianthus annuus
[1] = test system: Clearfield sunflower variety A; test: Greenhouse spray injury rating, Clearfield variety A; conditions: imazapyr 240 gm ai/ha, scale 0-9
Source text: Sunflower lines S4897, Clearfield® sunflower varieties A, B, C and a conventional non-Clearfield variety were sprayed with three rates of imazamox (Raptor™), 100, 200 and 300 gm ai/ha plus 0.5% Sun It II and two rates of imazapyr (Arsenal™) 160 and 360 gm ai/ha plus 0.5% Sun It II when the plants were at the two to three leaf stage. Ratings were taken at 14 days after application (DAT) for injury. Injury was rated on a scale from 0 to 9 where 0=no injury to 9=dead plant. Twelve plants were sprayed per herbicide/rate treatment. Statistical analysis was conducted with STATGRAPHICS Plus 5.0 by using ANOVA and LSD procedures.
After plants were sprayed, it was realized that a height difference between S4897 and other sunflower varieties would have impacted the actual herbicide dose that was delivered. The spray boom height had been calibrated against S4897 and since the other varieties were taller and closer to the boom they would have received a greater dose of herbicide. Rates were recalibrated for the other varieties to determine the approximate dose they would have received. Assessments were made as presented in Table 2 since it was not possible to make a direct rate comparison due to the effect of the height. For example injury scores were compare for S4897 treated imazamox rate 100 gm ai/ha to the other varieties treated at 75 gm ai/ha. The treatment dose of 300 gm ai/ha for line S4897 was equivalent to the treatment of 200 gm ai/ha for the other varieties, which […].

[2] = test system: sunflower hybrid TH9 (A205V); test: Greenhouse imazapir dose response, TH9; conditions: 14 DAT
Method: (§1) A greenhouse study was conducted to quantify and contrast the imazapir sensivity of the mutants A122T and A205V in different genetic backgrounds at the whole plant level in sunflower. Seeds of the different sunflower lines that were used in this study were obtained under field conditions.
(§2) Seeds were sown in Petri dishes and, after germination, plantlets were transplanted to pots of 10 cm of diameter in a potting media consisting of equal parts of vermiculite, soil and sand. Plants were grown in a greenhouse under natural light conditions supplemented with 400 W sodium halide lamps to provide a 16 hrs daylength. Day/night temperatures were 25 and 20° C., respectively. At the V2 stage 10 plants of each genotype were randomly assigned to each treatment consisting of […] imazapir doses (0, 40, 80, 160, 240, 320, 400 and 480 g ai/ha), and a zero-time biomass determination. Experiment was arranged as a randomized block design with a full factorial (sunflower line×treatment) arrangement of treatments and 10 replications.
(§3) On the day of herbicide application ten plants of each genotype were cut at the cotyledonal node and dried at 60° C. for 48 hrs zero-time for dried weight determination. […] Height was determined as the distance between the cotyledonal node and the apex of each plant. For root biomass determination, each plant was taken from the pot and the potting media was washed out from the roots. Above ground biomass data from each line were converted to biomass accumulation after application by subtracting the appropriate average zero-time biomass from each sample. Dry biomass data were converted to percentages of the untreated control plants within each line to allow direct comparisons between groups.

[3] = test system: sunflower hybrid TH6 (A122T); test: Greenhouse imazapir dose response, TH6; conditions: 14 DAT
Method: as §1, §2, §3

[4] = test system: sunflower line GM40 (A122T); test: Greenhouse imazapir dose response, GM40; conditions: 14 DAT
Method: as §1, §2, §3

With `CC(C)C1(C)N=C(c2ncccc2C(=O)O)NC1=O` (stereo not drawn) [Imazapyr, imazapyr] the “Injury at 14 DAT” value [1] was 5.0 c, the “Phytotoxicity Index” value ([2]; 0.5x (40 g ai/ha)) was 0 and the “biomass accumulation, % of untreated” value ([2]; 0.5x (40 g ai/ha)) was 91.7%. The “plant height, % of untreated” value ([2]; 0.5x (40 g ai/ha)) was 100.0%, the “root dry weight, % of untreated” value ([2]; 0.5x (40 g ai/ha)) was 81.5% and the “Phytotoxicity Index” value ([2]; 1x (80 g ai/ha)) was 0. For the same compound, the “biomass accumulation, % of untreated” value ([2]; 1x (80 g ai/ha)) was 81.7%, the “plant height, % of untreated” value ([2]; 1x (80 g ai/ha)) was 100.0% and the “root dry weight, % of untreated” value ([2]; 1x (80 g ai/ha)) was 84.9%. For the same compound, the “Phytotoxicity Index” value ([2]; 2x (160 g ai/ha)) was 1.6, the “biomass accumulation, % of untreated” value ([2]; 2x (160 g ai/ha)) was 54.7% and the “plant height, % of untreated” value ([2]; 2x (160 g ai/ha)) was 78.9%. The “root dry weight, % of untreated” value ([2]; 2x (160 g ai/ha)) was 58.8%, the “Phytotoxicity Index” value ([2]; 3x (240 g ai/ha)) was 5.1 and the “biomass accumulation, % of untreated” value ([2]; 3x (240 g ai/ha)) was 35.7%. For the same compound, the “plant height, % of untreated” value ([2]; 3x (240 g ai/ha)) was 50.0%, the “root dry weight, % of untreated” value ([2]; 3x (240 g ai/ha)) was 34.1% and the “Phytotoxicity Index” value ([2]; 4x (320 g ai/ha)) was 8.4. For the same compound, the “biomass accumulation, % of untreated” value ([2]; 4x (320 g ai/ha)) was 25.3%, the “plant height, % of untreated” value ([2]; 4x (320 g ai/ha)) was 38.1% and the “root dry weight, % of untreated” value ([2]; 4x (320 g ai/ha)) was 27.3%. For the same compound, the “Phytotoxicity Index” value ([2]; 5x (400 g ai/ha)) was 8.9, the “biomass accumulation, % of untreated” value ([2]; 5x (400 g ai/ha)) was 19.8% and the “plant height, % of untreated” value ([2]; 5x (400 g ai/ha)) was 31.8%. The “root dry weight, % of untreated” value ([2]; 5x (400 g ai/ha)) was 29.9%, the “Phytotoxicity Index” value ([2]; 6x (480 g ai/ha)) was 8.9 and the “biomass accumulation, % of untreated” value ([2]; 6x (480 g ai/ha)) was 19.5%. For the same compound, the “plant height, % of untreated” value ([2]; 6x (480 g ai/ha)) was 34.7%, the “root dry weight, % of untreated” value ([2]; 6x (480 g ai/ha)) was 22.1% and the “Phytotoxicity Index” value ([3]; 0.5x (40 g ai/ha)) was 0.5. For the same compound, the “biomass accumulation, % of untreated” value ([3]; 0.5x (40 g ai/ha)) was 100%, the “plant height, % of untreated” value ([3]; 0.5x (40 g ai/ha)) was 99.2% and the “root dry weight, % of untreated” value ([3]; 0.5x (40 g ai/ha)) was 100%. The “Phytotoxicity Index” value ([3]; 1x (80 g ai/ha)) was 0.5, the “biomass accumulation, % of untreated” value ([3]; 1x (80 g ai/ha)) was 97.2% and the “plant height, % of untreated” value ([3]; 1x (80 g ai/ha)) was 98.6%. The “root dry weight, % of untreated” value ([3]; 1x (80 g ai/ha)) was 98.1%, the “Phytotoxicity Index” value ([3]; 2x (160 g ai/ha)) was 0.5 and the “biomass accumulation, % of untreated” value ([3]; 2x (160 g ai/ha)) was 97.9%. For the same compound, the “plant height, % of untreated” value ([3]; 2x (160 g ai/ha)) was 100.3%, the “root dry weight, % of untreated” value ([3]; 2x (160 g ai/ha)) was 96.2% and the “Phytotoxicity Index” value ([3]; 3x (240 g ai/ha)) was 0.5. The “biomass accumulation, % of untreated” value ([3]; 3x (240 g ai/ha)) was 98.2%, the “plant height, % of untreated” value ([3]; 3x (240 g ai/ha)) was 99.6% and the “root dry weight, % of untreated” value ([3]; 3x (240 g ai/ha)) was 79.3%. The “Phytotoxicity Index” value ([3]; 4x (320 g ai/ha)) was 0.5, the “biomass accumulation, % of untreated” value ([3]; 4x (320 g ai/ha)) was 97.8% and the “plant height, % of untreated” value ([3]; 4x (320 g ai/ha)) was 101.0%. For the same compound, the “root dry weight, % of untreated” value ([3]; 4x (320 g ai/ha)) was 78.4%, the “Phytotoxicity Index” value ([3]; 5x (400 g ai/ha)) was 0.5 and the “biomass accumulation, % of untreated” value ([3]; 5x (400 g ai/ha)) was 85.1%. The “plant height, % of untreated” value ([3]; 5x (400 g ai/ha)) was 87.0%, the “root dry weight, % of untreated” value ([3]; 5x (400 g ai/ha)) was 85.8% and the “Phytotoxicity Index” value ([3]; 6x (480 g ai/ha)) was 0.5. For the same compound, the “biomass accumulation, % of untreated” value ([3]; 6x (480 g ai/ha)) was 79.5%, the “plant height, % of untreated” value ([3]; 6x (480 g ai/ha)) was 79.6% and the “root dry weight, % of untreated” value ([3]; 6x (480 g ai/ha)) was 57.3%. For the same compound, the “biomass accumulation, % of untreated” value ([4]; 0.5x (40 g ai/ha)) was 96.5%, the “plant height, % of untreated” value ([4]; 0.5x (40 g ai/ha)) was 99.6% and the “root dry weight, % of untreated” value ([4]; 0.5x (40 g ai/ha)) was 100%. The “biomass accumulation, % of untreated” value ([4]; 1x (80 g ai/ha)) was 94.1%, the “plant height, % of untreated” value ([4]; 1x (80 g ai/ha)) was 97.4% and the “root dry weight, % of untreated” value ([4]; 1x (80 g ai/ha)) was 100%. For the same compound, the “biomass accumulation, % of untreated” value ([4]; 2x (160 g ai/ha)) was 97.6%, the “plant height, % of untreated” value ([4]; 2x (160 g ai/ha)) was 95.2% and the “root dry weight, % of untreated” value ([4]; 2x (160 g ai/ha)) was 100%. For the same compound, the “biomass accumulation, % of untreated” value ([4]; 3x (240 g ai/ha)) was 95.8%, the “plant height, % of untreated” value ([4]; 3x (240 g ai/ha)) was 93.0% and the “root dry weight, % of untreated” value ([4]; 3x (240 g ai/ha)) was 92.2%. The “biomass accumulation, % of untreated” value ([4]; 4x (320 g ai/ha)) was 88.3%, the “plant height, % of untreated” value ([4]; 4x (320 g ai/ha)) was 93.0% and the “root dry weight, % of untreated” value ([4]; 4x (320 g ai/ha)) was 96.1%. The “biomass accumulation, % of untreated” value ([4]; 5x (400 g ai/ha)) was 85.6%, the “plant height, % of untreated” value ([4]; 5x (400 g ai/ha)) was 93.9% and the “root dry weight, % of untreated” value ([4]; 5x (400 g ai/ha)) was 84.2%. The “biomass accumulation, % of untreated” value ([4]; 6x (480 g ai/ha)) was 76.8%, the “plant height, % of untreated” value ([4]; 6x (480 g ai/ha)) was 84.3% and the “root dry weight, % of untreated” value ([4]; 6x (480 g ai/ha)) was 74.3%.
